US20020132782A1, “9-amino erythromycin derivatives with antibacterial activity” (priority 2001, published 2002)
Converted amounts (≈) assume the structure as drawn.

Assays:
Experiment in all cases: In vitro assay of antibacterial activity (agar dilution MIC)
Type in all cases: cell-based
[1] = system: Haemophilus influenzae DILL AMP R; conditions: organism code CC, BHI agar, 35-37° C., 20 to 24 hours
Procedure: (§1) Representative compounds of the present invention were assayed in vitro for antibacterial activity as follows: Twelve petri dishes containing successive aqueous dilutions of the test compound mixed with 10 mL of sterilized Brain Heart Infusion (BHI) agar (Difco 0418-01-5) were prepared. Each plate was inoculated with 1:100 (or 1:10 for slow-growing strains, such as Micrococcus and Streptococcus) dilutions of up to 32 different microorganisms, using a Steers replicator block. The inoculated plates were incubated at 35-37° C. for 20 to 24 hours. In addition, a control plate, using BHI agar containing no test compound, was prepared and incubated at the beginning and end of each test.
(§2) An additional plate containing a compound having known susceptibility patterns for the organisms being tested and belonging to the same antibiotic class as the test compound was also prepared and incubated as a further control, as well as to provide test-to-test comparability. […] After incubation, each plate was visually inspected. The minimum inhibitory concentration (MIC) was defined as the lowest concentration of drug yielding no growth, a slight haze, or sparsely isolated colonies on the inoculum spot as compared to the growth control.

[2] = system: Staphylococcus aureus 1775; conditions: organism code BB, BHI agar, 35-37° C., 20 to 24 hours
Procedure: as §1, §2

[3] = system: Staphylococcus aureus ATCC 6538P; conditions: organism code AA, BHI agar, 35-37° C., 20 to 24 hours
Procedure: as §1, §2

[4] = system: Streptococcus pneumoniae 5649; conditions: organism code JJ, BHI agar, 35-37° C., 20 to 24 hours
Procedure: as §1, §2

[5] = system: Streptococcus pneumoniae ATCC 6303; conditions: organism code GG, BHI agar, 35-37° C., 20 to 24 hours
Procedure: as §1, §2

[6] = system: Streptococcus pyogenes EES61; conditions: organism code DD, BHI agar, 35-37° C., 20 to 24 hours
Procedure: as §1, §2

[7] = system: Streptococcus pyogenes PIU 2548; conditions: organism code FF, BHI agar, 35-37° C., 20 to 24 hours
Procedure: as §1, §2

[8] = system: Streptococcus pneumoniae 5737; conditions: organism code HH, BHI agar, 35-37° C., 20 to 24 hours
Procedure: as §1, §2

[9] = system: Streptococcus pyogenes 930; conditions: organism code EE, BHI agar, 35-37° C., 20 to 24 hours
Procedure: as §1, §2

| SMILES | MIC [1] [µg/mL] | MIC [2] [µg/mL] | MIC [3] [µg/mL] | MIC [4] [µg/mL] | MIC [5] [µg/mL] | MIC [6] [µg/mL] | MIC [7] [µg/mL] | MIC [8] [µg/mL] | MIC [9] [µg/mL] |
| --- | --- | --- | --- | --- | --- | --- | --- | --- | --- |
| CC[C@H]1OC(=O)[C@H](C)[C@@H](O[C@H]2C[C@@](C)(OC)[C@@H](O)[C@H](C)O2)[C@H](C)[C@@H](O[C@@H]2O[C@H](C)C[C@H](N(C)C)[C@H]2O)[C@](C)(O)C[C@@H](C)C(=O)[C@H](C)[C@@H](O)[C@]1(C)O [Ery. A, Erythromycin A, reference compound] | 4 (≈ 5.45 µM) | >100 | 0.2 (≈ 0.273 µM) | 16 (≈ 21.8 µM) | 0.06 (≈ 0.0818 µM) | 0.06 (≈ 0.0818 µM) | 32 (≈ 43.6 µM) | – | – |
| CCC1OC(=O)C(C)C(=O)C(C)C(OC2OC(C)CC(N(C)C)C2O)C(C)(OCC=Cc2cnc3ccccc3c2)CC(C)C(N)C(C)C2OC(=O)OC12C (stereo not drawn) [Example 9, Compound of Formula (II): R^1 is (Quinolin-3-yl)CH═CHCH2; R^2 is Hydrogen; R^3 is Hydrogen; R^4 and R^5 are —C(O)—; R^p is Hydrogen] | 32 | >100 | 0.2 | 32 | 2 | 1 | >128 | >128 | >128 |
| CCC1OC(=O)C(C)C(=O)C(C)C(OC2OC(C)CC(N(C)C)C2O)C(C)(OCC=Cc2cnc3ccccc3c2)CC(C)C(N)C(C)C(O)C1(C)O (stereo not drawn) [Example 7, Compound of Formula (II): R^1 is (Quinolin-3-yl)CH═CHCH2; R^2 is Hydrogen; R^3 is Hydrogen; R^4 is Hydrogen; R^5 is Hydrogen; R^p is Hydrogen] | 16 | >100 | 0.78 | 1 | 0.5 | 0.25 | 2 | >64 | – |
| CCC1OC(=O)C(C)C(=O)C(C)C(OC2OC(C)CC(N(C)C)C2O)C(C)(OCC=Cc2cnc3ccccc3c2)CC(C)C2NC(=O)OC(C2C)C1(C)O (stereo not drawn) [Example 8, Compound of Formula (II): R^1 is (Quinolin-3-yl)CH═CHCH2; R^2 is Hydrogen; R^3 and R^4 together are —C(O)—; R^5 is Hydrogen; R^p is Hydrogen] | 16 | >100 | 0.39 | 2 | 0.03 | 0.03 | 1 | 128 | >128 |
